# Laboratory results from patent US12473276B2, “Compound having neuroprotective effect, preparation method therefor and use thereof” (Shanghai Zhimeng Biopharma, Inc., priority 2019, dated 2025).
# “And” between values parts separate entries of the source, which are not always exact repeats. Equal entries are not always repeated.
# Test system: rat focal cerebral ischemia-reperfusion model (Middle cerebral artery occlusion, MCAO)
# Assay: Protective effect on focal cerebral ischemia reperfusion (MCAO) in rats: cerebral infarction area by TTC staining
# Assay type: in vivo, Sprague Dawley (SD) rat
# Details: for Cerebral infarction area in rats (%): 2.0 h ischemia then reperfusion, mean ± standard error; for Effect on reducing the cerebral infarct area in model rats compared with the model group (significance): P<0.05 significant; for Compared with the model group, the reduced proportion of cerebral infarction area in the compound group: versus model group of the same test
# Description: Sprague Dawley (SD) rat, male, SPF grade, weight 250-280 g
# • Compounds 04007, 04015, 04041, 04047, 04050 and 04089 • Commercially available edaravone injection, products of Nanjing Simcere dongyuan pharmaceutical Co., Ltd, specifications 10 mg/mL 1.3 Experimental Method 1.3.1 Preparation of Focal Cerebral Ischemia-Reperfusion Model
# The rat focal cerebral ischemia-reperfusion model (Middle cerebral artery occlusion, MCAO) was prepared by internal carotid artery suture method. Rats were injected intraperitoneally with 7% chloral hydrate (6.0 mL/kg), and the depth of anesthesia was appropriate for severe stimulation of animals with slight reaction. The anesthetized rats were tightened with rubber bands on the limbs (the hind limbs were fixed above the knee joint, and the forelimbs were fixed above the wrist joint) and the head, and the animals were fixed on the operating table in the supine position, and the animal shaver was used from the head end to the chest to shave hair, and the skin was disinfected with alcohol. The neck was cut in the middle and the subcutaneous tissue was blunt separated. […] The arterial shell was opened, the right carotid bifurcation was exposed, and the right common carotid artery, external carotid artery, internal carotid artery were separated, the vagus nerve was gently peeled off, the external carotid artery was ligated and cut off. The end of the common carotid artery proximity to the heart was clamped, and an incision was made from the distal end of the ligature line of the external carotid artery, suture was inserted and entered into the internal carotid artery through the bifurcation of the common carotid artery, and then slowly inserted until there was slight resistance (about 20 mm from the bifurcation), all blood supply of the middle cerebral artery was blocked. The suture was slightly fixed with the silk under the incision of the external carotid artery, the clamping silk at the end of the common carotid artery proximity to the heart was loosen, the wound surface was covered with gauze soaked with disinfected normal saline, and the rats were kept warm by placing on the heat preservation mat. After right cerebral ischemia for 2.0 h, the suture was gently pulled out, blood supply was restored for reperfusion, the external carotid artery was ligated with the silk fixing the suture, the skin was sutured, and disinfected.
# The experimental animals were divided into model group, edaravone group (6 mg/kg) and compound to be tested group (5 mg/kg ration of compound to be tested: 5% DMAC+5% Solutol HS 15+90% Saline were used to prepare a solution with a concentration of 1 mg/mL.
# After the ischemia model was prepared, the animals were assigned to each group in a single blind with equal probability. The animals were administered intravenously once immediately after reperfusion, and the animals in the model group were given the same volume of normal saline. The animals were sacrificed 24 hours after ischemia, the brain was taken, stained and photographed to determine the area of cerebral infarction.
# The degree of cerebral infarction was determined by TTC, staining. After the evaluation of the symptoms of neurological defects in animals was completed, the animals were killed with CO2, the brain was taken by decapitation, the olfactory bulb, cerebellum and low brainstem were removed, blood stains on the surface of the brain were washed with normal saline, residual water stains on the surface were sucked out, and placed at −20° C. for 20 min. Immediately after taking out, the coronal section was made vertically downward at the intersection plane of the line of sight, and cut a slice every 2 mm backwards, the brain slices were incubated in 1% TTC dye solution (37° C. for 20 min). The normal brain tissue was dyed crimson, while the ischemic brain tissue was pale. […]
# [1] = compound 5 mg/kg intravenously once immediately after reperfusion, measured 24 hours after ischemia
# [2] = compound 5 mg/kg versus edaravone 6 mg/kg
Compound,Cerebral infarction area in rats (%) [1] [%],Effect on reducing the cerebral infarct area in model rats compared with the model group (significance) (compound 5 mg/kg i.v.),"Compared with the model group, the reduced proportion of cerebral infarction area in the compound group (compound 5 mg/kg i.v.) [%]",Efficacy compared with the positive control drug edaravone group [2],"Cerebral infarction area in rats (%) (compound 0.5 mg/kg intravenously once immediately after reperfusion, measured 24 hours after ischemia)",Effect on reducing the cerebral infarct area in model rats compared with the model group (significance) (compound 0.5 mg/kg i.v.),"Compared with the model group, the reduced proportion of cerebral infarction area in the compound group (compound 0.5 mg/kg i.v.) [%]",Efficacy compared with the positive control drug edaravone group (compound 0.5 mg/kg versus edaravone 6 mg/kg),"Cerebral infarction area of rats in edaravone group in the same test(%) (edaravone 6 mg/kg intravenously once immediately after reperfusion, measured 24 hours after ischemia, one value per test run)"
CN1CC(OC(=O)c2ccc(N3Cc4cc(Cl)cc(Cl)c4OC3=S)cn2)C1 [Compound 04007],35.41 ± 3.71,significantly reduce the cerebral infarct area,26,equivalent or better efficacy,–,–,–,–,–
CCOC(=O)c1ccc(Cn2c(=S)oc3c(Cl)cc(Cl)cc32)cc1O [Compound 04041],30.37 ± 4.36,significantly reduce the cerebral infarct area,37,equivalent or better efficacy,–,–,–,–,–
CC(C)OC(=O)c1ccc(N2COc3c(Cl)cc(Cl)cc3C2)cn1 [Compound 04047],35.47 ± 5.34,no significant effect on reducing the cerebral infarct area,15,–,–,–,–,–,–
C#CCCOC(=O)c1ccc(N2Cc3cc(Cl)cc(Cl)c3OC2=S)cn1 [Compound 04050],30.97 ± 4.33,significantly reduce the cerebral infarct area,26,equivalent or better efficacy,–,–,–,–,–
CCOCCOC(=O)c1ccc(N2Cc3cc(Cl)cc(Cl)c3OC2=S)cn1 [Compound 04089],–,–,–,–,27.80 ± 2.22,significantly reduce the cerebral infarct area,34,equivalent or better efficacy,–
"CC1=NN(c2ccccc2)C(=O)C1 [edaravone, reference compound]",–,–,–,–,–,–,–,–,32.08% and 27.44% and 28.47% and 32.45%
